A short description of series [1]: Acute toxicity, LD50 in mice after intraperitoneal administration. The settings on record: mouse, in vivo, ip, determined 48 hours after administration. On the procedure: The LD50 or lethal dose at which 50% of the animals died after intraperitoneal administration of the test compound to mice was determined 48 hours after the administration.
In series [2] the test system is dogs. Description: Anorexigenic activity in dogs (method of Adams et al). The format is in vivo, dog. As to conditions: Canis lupus familiaris, po, compound given in lieu of first ball, balls offered every 10 minutes for 7 hours, activity grew with increasing doses, read-out: dose at which anorexigenic activity was shown (refusal of food balls). How it is done: The anorexigenic activity was studied in dogs using the method of Adams et al [J. Pharm. Sci., Vol. 53, (1964), p. 1405]. On the day of the test with the compound presumed to be anorexigenic, the individual daily ration of the animal was divided into about equal balls (10 to 20 g) which were offered to the dog every 10 minutes for 7 hours. Normally, the animal will regularly accept the successive balls when they are presented.

By LD50 is commonly meant the dose expected to kill half of the subjects tested.

Molecules are shown by their SMILES. Counter-ions that a name gives are not always drawn.

In turn, `CN(C)CCC(Oc1ccc([N+](=O)[O-])cc1)c1ccccc1` (centres unmarked) [Example 1, N,N-dimethyl-γ-(4-nitrophenoxy)-benzene-propanamine oxalate] came in with an LD50 at 48 h in series [1] of roughly 75 mg/kg. Further, the minimal effective dose in series [2] turned out to be 3 mg/kg.

These data come from patent US4296126A, “3-Aryloxy-3-aryl-propaneamines and their method of use” (Roussel Uclaf, priority 1978, dated 1981).
